# Experimental data taken from patent US6262021A, “Use of substances having oxytocin activity for preparation of medicaments for wound healing” (EntreTech Medical AB, priority 1997, dated 2001).
# Experiments:
# NGF = settings: intravenous injection, female rats; cited from earlier work
# central α2 -receptors = assay: Activity of central α2-receptors after oxytocin; type: in vivo; settings: rats; by way of a central action
# Source text: Experiments have shown that oxytocin by way of a central action increases the activity of the central α2 -receptors in rats. These receptors have an inhibitory action and counteracts the activating aspects of noradrenalin in the brain which are mainly mediated via α1 -receptors, which activate cyclic AMP. When α2 -receptor stimulation dominates over α1 -receptor stimulation, activity is exchanged by relaxation and energy is shunted towards growing and healing, i.e. is not used for stress or muscular contraction and activity. As a consequence parasympathetic nerve tone dominates over sympathetic nervous tone and the musculature is relaxed. It can be presumed that oxytocin exerts a similar effect also in humans. During breast feeding--a situation characterized by repetitive oxytocin secretion--all the effects observed in experimental animals following repeated oxytocin administration are seen. It is not known how the effect by oxytocin on α2 -receptors is mediated, but probably not by a classical oxytocin receptor mediated effect.
# FGF-1 = assay: Concentration of FGF in skin biopsies from the injured area of diabetic mice; type: in vivo, C57BL/Ks-db/db diabetic mice; settings: 10 μg/cm^2 oxytocin; skin biopsies 7 days after injury; ten mice; p<0.001
# Experimental: The concentration of FGF was compared in skin biopsies taken from the injured area ("ulcer") of ten mice treated with 10 μg/cm^2 oxytocin and ten mice treated with PBS 7 days after injury. […] This increase in concentration was highly significant (p<0.001) and strongly support the hypothesis that oxytocin increases wound healing through an increased expression and synthesis of FGF-1.
# [1] = test system: full-thickness dermal excisional wounds; assay: Wound healing in diabetic mice after administration of oxytocin (Test 2); type: in vivo, C57BL/Ks-db/db diabetic mice
# Source text: For studying the effects of cutaneous wound-healing agents on chronic non-healing dermal ulcers the mutant C57BL/Ks-db/db diabetic mouse has emerged as a potentially relevant healing-impaired model. These homozygous genetically diabetic mice develop obesity and hyper-glycemia that is resistant to insulin, analogous to human type II diabetes. They also show signs of diabetes such as excessive drinking and urination and greatly elevated urinary glucose levels. […] Previous studies have used this model to evaluate formulations of aFGF.
# Female C57BL/Ks-db/db diabetic mice, 11 weeks old, were obtained from Jackson Laboratories (Bar Harbor, Me.). The mice were housed in sterile microisolator boxes (four per box) with sterile water and bedding and were kept in a semi-barrier quarantine facility. Supplemental heat was provided with electric heating pads under half of each box after wounding to prevent hypothermia and reduce mortality.
# Mice were anesthetized with intraperitoneal injections of 110 mg ketamine and 9 mg xylazine per kg of body weight. The mid-back and thoracic skin was shaved and disinfected with a 2% Chlorhexidine surgical scrub, followed by 70% ethanol. A template 1.6 cm in diameter was used to mark a 2.0 cm^2 circle on the mid-dorsal area, and a single full-thickness wound was created by blunt excision with sterile curved iris scissors. […] All surgical and subsequent healing analysis procedures were performed in a laminar flow hood using full aseptic techniques. Doses were administrated on 5 consecutive days before, and on day 0, 3 and 7 after injury. Oxytocin was administrated at different doses, 0.001, 0.01, 0.1, 1.0, 10.0 and 100.0 μg/cm^2 , respectively, to groups of 16 mice per dose. The wounds were covered with a semitransparent Bioclusive dressing (Johnson & Johnson Products, New Brunswick, N.J.) for protection, maintenance of a moist environment and prevention of crust formation. Wound fluid samples were taken at day 10 after injury and cultured for aerobic and anaerobic microorganisms.
# Wound appearances were recorded photographically and their perimeters were traced onto sterile glass slides applied directly to the exposed wound surfaces after pre-wetting with a drop of sterile physiologic saline. Measurements were made immediately after wounding and twice weekly thereafter until the wounds were completely closed. Wound areas and perimeters were determined from the glass-slide tracings using computerized image analysis. Statistical significances of differences between groups were evaluated using an unpaired two-tailed Student t-test.
# Healing expressed as a decrease in percent initial area was converted to linear ingrowth from the wound edges by dividing the differences in wound areas by the average wound perimeters at sequential time intervals. Total ingrowth at a specific time is the sum of the incremental ingrowth distances up until that time. This transformation linearized closure as a function of time, thereby allowing expression of healing as kinetic rates that were constant over time.
# Wounds, examined twice weekly to monitor time to total closure, were considered fully healed when moist granulation tissue was no longer apparent, indicating a functional epidermal water-permeability barrier. Closure was also confirmed histologically. Time-point comparisons of the fraction of healed versus unhealed wounds were analyzed by the X^2 statistic with Yates correction, and group comparisons of absolute days to total closure for individual animals were analyzed by an unpaired two-tailed Student t-test.
# musculocutaneous flaps = assay: Survival of musculocutaneous flaps in rats after administration of oxytocin (Test 1); type: in vivo, rats (Sprague-Dawley); settings: 1 mg/kg s.c. 24 h and 1 h before and 24 h after operation; estimated six days after operation; oxytocin p<0.05, antagonist no significance p=0.13
# Source text: An established model of wound healing is to investigate the survival of musculocutaneous flaps in rats. In plastic surgery, reconstructive problems are often solved by surgical flaps. The main disadvantage of surgical flaps has been their tendency to develop ischemia and eventually necrosis of the distal part. This complication can in the end ruin what postoperatively seemed to be an excellent result. Much research has been devoted to explain the mechanisms of surgical skin flap survival and how to prevent and reverse established ischemia.
# The aim of this study was to investigate the effects of oxytocin on the survival of musculocutaneous flaps in rats.
# 71 female albino rats (Sprague-Dawley, weight 180-220 g) were anaesthetized with chloralhydrate (0.4 g/kg), shaved on the back and a dorsal cranially based standard flap (2×7 cm) was elevated and then sutured back in position. The flap was raised from the deep fascia of muscle and included the superficial fascia, panniculus carnosus, subcutaneous tissue and skin. 24 h and 1 h before operation, respectively, as well as 24 h after operation the rats were treated with 1 mg/kg oxytocin s.c. (n=20), an oxytocin antagonist, that is 1-deamino-2-D-Tyr-(OEt)-4-Thr-8-Orn-oxytocin in an amount of 1 mg/kg (n=15), with 1 mg/kg of said oxytocin antagonist and then after 30 minutes with 1 mg/kg oxytocin (n=16), or with saline (n=20). […]
smiles,measurement,setting,value
CC[C@H](C)[C@@H]1NC(=O)[C@H](Cc2ccc(O)cc2)NC(=O)[C@@H](N)CSSC[C@@H](C(=O)N2CCC[C@H]2C(=O)N[C@@H](CC(C)C)C(=O)NCC(N)=O)NC(=O)[C@H](CC(N)=O)NC(=O)[C@H](CCC(N)=O)NC1=O [oxytocin],hypothalamic levels of NGF,NGF,increase
same,activity of the central α2 -receptors,central α2 -receptors,increases
same,"FGF-1 synthesized, increase compared to PBS vehicle treated mice",FGF-1,162%
same,healing rates over paired vehicle controls,"[1]; 0.001 μg/cm^2, 0.01 μg/cm^2 and 0.1 μg/cm^2 doses",ineffective
same,linear rate of healing from the wound edges,"[1]; 10 μg/cm^2, all time intervals, p≤0.01",increased
same,enhancement of the healing rate of treated wounds,"[1]; 10 μg/cm^2, as early as day 7 after injury and throughout the test period, p≤0.01",Statistically significant enhancements
same,total closure (fraction of wounds closed),"[1]; 10 μg/cm^2, by day 14, p≤0.05",increases
same,decrease in wound size in treated mice compared with PBS/heparin vehicle,"[1]; 10 μg/cm^2, day 14",10 fold
same,maximum difference in percent of initial area between oxytocin and vehicle-treated wounds,"[1]; 10 μg/cm^2, from 14 d after injury",50%
same,mean linear healing rate,"[1]; 10 μg/cm^2, vehicle-treated group 0.18 mm/d, p≤0.01",0.45 mm/d
same,decrease of time to total closure,[1]; 0.001-μg/cm^2 and 0.01 μg/cm^2 doses,ineffective
same,time required for wounds to close completely,[1]; 1 to 100 μg/cm^2 per dose,significantly reduced
same,wounds closed sooner than respective vehicle controls,[1]; dose range 1.0 to 10.0 μg/cm^2,approximately 10 d
same,wound closure compared with vehicle control,"[1]; three doses of 10 μg per cm^2 initial wound area during first week after wounding, topical",substantially faster
same,median time to complete closure,"[1]; three doses of 10 μg/cm^2 during first week after injury, vehicle 52 d, p≤0.0001",23 days
same,healing rates over paired vehicle controls,"[1]; three topical applications, 1 to 100 μg/cm^2 per dose, first week after injury",significant dose-related increases
same,survival of the flaps compared to the saline-treated controls,musculocutaneous flaps,significantly higher
